US5936065A, “CS-1 peptidomimetics, compositions and methods of using the same” (Cytel Corporation, priority 1995, dated 1999)
Square brackets hold non-standard residues; d marks the D form. Peptide text beside a SMILES is read from it. * marks the point of attachment. Cya = N[C@@H](CS(=O)(=O)O)C(=O)O; NMeF = CN[C@@H](Cc1ccccc1)C(=O)O; Cha = N[C@@H](CC1CCCCC1)C(=O)O; NMeD = CN[C@@H](CC(=O)O)C(=O)O; Phg = N[C@H](C(=O)O)c1ccccc1; X8 = CCCCCCCCCCCCCCCCCCO*; Nle = CCCC[C@H](N)C(=O)O; Piperidide = C1CCN(*)CC1; X7 = O=C(CO*)OCc1ccccc1; NHDecyl = CCCCCCCCCCN*; PhAc = O=C(Cc1ccccc1)*; ODecyl = CCCCCCCCCCO*; X1 = CCCCCCCCCCCCCCO*; X4 = CCN(CC)C(=O)CO*; Bz = O=C(c1ccccc1)*; OBn = c1ccc(CO*)cc1; X5 = CCCCCCCCCCCCO*; X6 = O=C(O)CO*

molecular target: T1, VLA-4 receptor (Homo sapiens, UniProt P05556+P13612); test: In vitro binding assay: inhibition of binding of 51Cr-labeled Jurkat cells to solid phase-bound CS-1 compound (SEQ ID NO:1); assay type: cell-based; details: binding inhibition potency (IC50) normalized to standard compound of SEQ ID NO:3 = 1; multiple assays averaged; about one-tenth or less assigned zero
T1 construct: inflammatory cells that contain the VLA-4 receptor [Jurkat cells; host or cells: Jurkat cells (human T lymphoblastic line)
T1 sequence (P13612 34-1032): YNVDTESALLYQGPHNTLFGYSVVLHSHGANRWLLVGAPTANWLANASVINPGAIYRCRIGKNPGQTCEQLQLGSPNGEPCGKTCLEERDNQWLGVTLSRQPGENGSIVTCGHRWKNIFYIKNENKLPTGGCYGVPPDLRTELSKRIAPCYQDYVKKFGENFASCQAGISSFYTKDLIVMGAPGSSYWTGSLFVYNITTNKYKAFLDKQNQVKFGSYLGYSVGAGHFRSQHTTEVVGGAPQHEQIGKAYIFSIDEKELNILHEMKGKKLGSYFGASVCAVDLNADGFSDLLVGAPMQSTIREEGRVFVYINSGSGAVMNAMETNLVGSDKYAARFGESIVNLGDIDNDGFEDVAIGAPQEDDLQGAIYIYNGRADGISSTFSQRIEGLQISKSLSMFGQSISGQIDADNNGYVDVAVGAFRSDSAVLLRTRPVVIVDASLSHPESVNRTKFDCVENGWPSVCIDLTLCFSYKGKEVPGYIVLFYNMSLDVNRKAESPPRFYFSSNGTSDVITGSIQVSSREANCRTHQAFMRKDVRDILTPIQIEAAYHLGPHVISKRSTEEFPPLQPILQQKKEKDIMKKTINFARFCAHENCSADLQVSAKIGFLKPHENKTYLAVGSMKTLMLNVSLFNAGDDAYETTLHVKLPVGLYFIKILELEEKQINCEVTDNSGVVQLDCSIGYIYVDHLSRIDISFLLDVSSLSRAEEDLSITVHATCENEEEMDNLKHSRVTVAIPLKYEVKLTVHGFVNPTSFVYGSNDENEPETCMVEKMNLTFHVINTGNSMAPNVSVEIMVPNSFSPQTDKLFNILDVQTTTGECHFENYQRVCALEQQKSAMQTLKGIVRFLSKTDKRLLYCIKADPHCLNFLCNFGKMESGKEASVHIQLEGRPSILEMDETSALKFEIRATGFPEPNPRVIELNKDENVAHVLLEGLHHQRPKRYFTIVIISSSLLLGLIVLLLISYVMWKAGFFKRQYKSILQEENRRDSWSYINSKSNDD
T1 sequence (P05556 21-798): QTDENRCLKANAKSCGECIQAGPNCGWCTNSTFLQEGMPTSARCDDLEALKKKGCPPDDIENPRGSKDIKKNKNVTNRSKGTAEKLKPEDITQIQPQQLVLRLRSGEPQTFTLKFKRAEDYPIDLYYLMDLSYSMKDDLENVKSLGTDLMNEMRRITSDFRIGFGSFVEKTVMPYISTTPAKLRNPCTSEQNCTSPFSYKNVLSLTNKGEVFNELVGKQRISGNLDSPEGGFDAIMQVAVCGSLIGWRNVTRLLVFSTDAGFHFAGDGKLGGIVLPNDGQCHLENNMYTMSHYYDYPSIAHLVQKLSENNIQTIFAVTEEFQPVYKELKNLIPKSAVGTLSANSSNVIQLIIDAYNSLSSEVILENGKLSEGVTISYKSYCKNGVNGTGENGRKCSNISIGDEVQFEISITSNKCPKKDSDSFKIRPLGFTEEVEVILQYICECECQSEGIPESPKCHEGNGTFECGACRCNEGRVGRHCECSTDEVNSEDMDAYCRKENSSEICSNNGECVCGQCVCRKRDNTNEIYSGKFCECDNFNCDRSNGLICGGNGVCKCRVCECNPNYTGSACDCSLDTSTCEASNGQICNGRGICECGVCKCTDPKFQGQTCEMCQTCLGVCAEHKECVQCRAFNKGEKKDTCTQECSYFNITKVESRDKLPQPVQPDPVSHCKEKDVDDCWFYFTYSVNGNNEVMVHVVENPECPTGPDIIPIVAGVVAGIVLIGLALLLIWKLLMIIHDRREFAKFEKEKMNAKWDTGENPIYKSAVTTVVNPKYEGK
Procedure: Binding inhibition is measured here as a concentration of compound that inhibits one-half the binding between a standard number of Jurkat cells and a standard amount of CS-1 compound bound to the surface of a microtiter plate well. Those concentrations are conveniently expressed as IC50 values, smaller numbers indicating a lower concentration required to inhibit 50 percent binding and therefore greater potency. Further specifics of this assay are provided hereinafter.
Jurkat cells (ATCC TIB 152), a human T lymphoblastic line, labeled with ^51 chromium were used to assay in vitro binding inhibition provided by various compounds discussed herein.
The plates were prepared as follows: The 25-mer CS-1 compound (SEQ ID NO:1) dissolved at 0.5-1 μg/ml in a buffer of 0.1M NaHCO3 at pH 9.5 that also contained 10 μg/ml of bovine serum albumin (BSA) or a conjugate of the CS-1 compound linked to ovalbumin (CS-1-OVA) dissolved at 1-2.5 μg/ml in the same buffer was used as the substrate. Each well of the microtiter plates was coated with 50 μl of substrate or buffer alone for controls. The wells were permitted to dry out completely and were then rinsed twice with PBS at pH 7.4. Non-specific binding sites of each well were then blocked using 200 μl per well of RPMI/1 percent BSA for two hours at room temperature.
Jurkat cells (3-5×10^6 cells) were placed into a 15 ml Falcon™ round-bottom tube with a cap. The tube was centrifuged, and the extra medium was then removed.
Two hundred microliters of a ^51 Cr labeling solution were added to the centrifuged cells and maintained in contact with the cells for 90-120 minutes in a warm room. […] Longer contact times provide a greater amount of labeling but lower cell viability.
The labeled cells are washed with (i) complete medium, (ii) 1 mM EDTA/PBS and then (iii) RPM1/1 percent BSA free of serum components. The cells are centrifuged after each washing. The cells are finally resuspended in serum-free RPMI/1 percent BSA at a concentration of 1×10^6 viable cells/ml, which provides a concentration that is diluted by one-half in the assay.
Inhibitor compounds are prepared as stock solutions at 20 mg/ml in DMSO in 1.5 ml cryogenic screwcap vials, and were stored at -70° C. Using Flow™ round-bottom or V-bottom microtiter plates, the inhibitor compounds were prepared at twice the assay concentration in RPMI/1 percent BSA at 60 μl/well.
Four initial dilutions were typically used.
The ^51 Cr-labeled cells ([…] at 60 μl/well) were then admixed with the diluted compound solutions. The admixtures were maintained at room temperature (about 22° C.) for 30 minutes.
One hundred microliters of each inhibitor compound/cell admixture were transferred to the substrate-coated wells. This was done in triplicate for each dilution. The resulting plates were incubated for 30 minutes at 37° C. and then washed gently three times with RPMI/1 percent BSA at 200 μl/well. Binding was observed microscopically, particularly after the second wash.
The bound cells were then lysed by the addition of a 0.5 percent solution of sodium dodecylsulfate in water at 100 μl/well. The resulting solutions were then processed for counting and calculation of IC50 values following usual procedures.
The data of Table 1 are normalized to the binding of SEQ ID NO:3. […] Multiple assays for the same compound were averaged.

| SMILES | Relative Potency |
| --- | --- |
| CC(C)C[C@H](NC(=O)Cc1ccccc1)C(=O)N[C@@H](CP(=O)(O)O)C(=O)N[C@@H](Cc1ccccc1)C(=O)N1CCCCC1 [1026.07] | 0 |
| CC(C)C[C@H](NC(=O)Cc1ccccc1)C(=O)N[C@@H](CC(=O)O)C(=O)N[C@@H](Cc1ccccc1)C(N)=O [997.12] (PhAc-Leu-Asp-Phe-NH2) | .48 |
| CC(C)C[C@H](NC(=O)Cc1ccccc1)C(=O)N[C@@H](CC(=O)O)C(=O)N[C@@H](Cc1ccccc1)C(=O)N1CCSCC1 [1111.02] | 450 |
| CC(C)C[C@H](NC(=O)c1ccccc1)C(=O)N[C@@H](CC(=O)O)C(=O)N[C@H](C(=O)N1CCC[C@H]1C(N)=O)C(C)C [896.35] | 16 |
| CCCC[C@H](NC(=O)Cc1ccccc1)C(=O)N[C@@H](CC(=O)O)C(=O)N[C@@H](Cc1ccccc1)C(=O)N1CCC[C@@H]1C(N)=O [1160.02] (PhAc-[Nle]DF[dP]-NH2) | 49 |
| CC(C)C[C@H](NC(=O)Cc1ccccc1)C(=O)N[C@@H](CC(=O)O)C(=O)N[C@H](C(=O)N1CCC[C@@H]1C(N)=O)c1ccccc1 [896.69] (PhAc-LD[Phg][dP]-NH2) | 61 |
| O=C(O)CC(C(=O)N[C@@H](Cc1ccccc1)C(=O)N1CCCCC1)N1CC[C@H](NC(=O)Cc2ccccc2)C1=O (some centres unmarked) [1057.01] | .88 |
| CC(C)C[C@H](NC(=O)Cc1ccccc1)C(=O)NC(CC(=O)O)(CC(=O)O)C(=O)N[C@@H](Cc1ccccc1)C(=O)N1CCCCC1 [1026.01] | 0 |
| CC(C)C[C@H](NC(=O)Cc1ccccc1)C(=O)N(C)[C@@H](CC(=O)O)C(=O)N[C@@H](Cc1ccccc1)C(=O)N1CCC[C@@H]1C(N)=O [1190.06] (PhAc-L[NMeD]F[dP]-NH2) | 0 |
| CC(C)C[C@H](NC(=O)Cc1ccccc1)C(=O)N[C@@H](CC(=O)O)C(=O)N[C@@H](Cc1ccccc1)C(=O)NCCCO [1051.05] | 25 |
| CC(C)C[C@H](NC(=O)Cc1ccccc1)C(=O)N[C@@H](CC(=O)O)C(=O)N(C)[C@@H](Cc1ccccc1)C(=O)N1CCC[C@@H]1C(N)=O [1190.05] (PhAc-LD[NMeF][dP]-NH2) | 0 |
| NC(=O)[C@H]1CCCN1C(=O)[C@H](Cc1ccccc1)NC(=O)[C@H](CC(=O)O)NC(=O)[C@H](CC1CCCCC1)NC(=O)c1ccccc1 [896.31] (Bz-[Cha]DF[dP]-NH2) | 11 |
| CC(C)C[C@H](NC(=O)Cc1ccccc1)C(=O)N[C@@H](CC(=O)O)C(=O)N1C(=O)N(Cc2ccccc2)C(=O)[C@@H]1Cc1ccccc1 [1047.08] | .38 |
| CC(C)C[C@H](NC(=O)Cc1ccccc1)C(=O)NC(C(=O)O)C(=O)N[C@@H](Cc1ccccc1)C(=O)N1CCCCC1 (some centres unmarked) [1026.02] | 0 |
| CC(C)C[C@@H](CN[C@@H](CC(=O)O)C(=O)N[C@@H](Cc1ccccc1)C(=O)N1CCCCC1)NC(=O)Cc1ccccc1 [1041.01] | 0 |
| CC(C)C[C@H](NC(=O)c1ccccc1)C(=O)N[C@@H](CC(=O)O)C(=O)N[C@H](C(=O)N1CCC[C@@H]1C(N)=O)C(C)C [926.02] | 9.6 |
| CC(C)C[C@H](NC(=O)Cc1ccccc1)C(=O)N[C@@H](CS)C(=O)N[C@@H](Cc1ccccc1)C(=O)N1CCC[C@@H]1C(N)=O [896.59] (PhAc-LCF[dP]-NH2) | 0 |
| O=C(O)C[C@H](NC1CCN(C(=O)Cc2ccccc2)CC1)C(=O)N[C@@H](Cc1ccccc1)C(=O)N1CCCC1 [992.01] | 0 |
| NC(=O)[C@H]1CCCN1C(=O)[C@H](Cc1ccccc1)NC(=O)[C@H](CC(=O)O)NC(=O)CCCCC1CCSS1 (some centres unmarked) [1056.09] | 1.1 |
| CC(C)CN(CC(=O)Nc1ccccc1)C(=O)CN(CC(=O)O)C(=O)CN(Cc1ccccc1)C(=O)C1CCCC1 [1032.02] | .63 |
| CC(C)C[C@H](NC(=O)Cc1ccccc1)C(=O)N[C@@H](CC(=O)O)C(=O)NC1CCCCN(CC(N)=O)C1=O (some centres unmarked) [1057.06] | 97 |
| CC(C)C[C@H](NC(=O)Cc1ccccc1)C(=O)N[C@@H](CC(=O)O)C(=O)N[C@@H](Cc1ccccc1)C(=O)N1CCN(CCOCCO)CC1 [1111.07] | 510 |
| CC(C)C[C@H](NC(=O)Cc1ccccc1)C(=O)N[C@@H](CC(=O)O)C(=O)N1C(=O)N(Cc2ccccc2)C(=O)[C@H]1Cc1ccccc1 [1047.07] | .38 |
| CC(C)C[C@H](NC(=O)Cc1ccccc1)C(=O)N[C@@H](CS(N)(=O)=O)C(=O)N[C@@H](Cc1ccccc1)C(=O)N1CCCCC1 [1026.08] | 0 |
| CC(C)C[C@H](NC(=O)Cc1ccccc1)C(=O)N[C@@H](CS(=O)(=O)O)C(=O)N[C@@H](Cc1ccccc1)C(=O)N1CCCCC1 [1026.06] (PhAc-Leu-[Cya]-Phe-Piperidide) | 0 |
| CC(C)C[C@H](NC(=O)Cc1ccccc1)C(=O)N[C@@H](CC(=O)O)C(=O)NC1Cc2ccccc2N(CCN2CCOCC2)C1=O (some centres unmarked) [997.18] | 20 |

same assay, conditions: prodrug compounds, potency before enzymatic conversion to active form; relative to SEQ ID NO:3 = 1

| SMILES | Relative Potency |
| --- | --- |
| CCN(CC)C(=O)COC(=O)C[C@H](NC(=O)[C@H](CC(C)C)NC(=O)Cc1ccccc1)C(=O)N[C@@H](Cc1ccccc1)C(=O)N1CCC[C@@H]1C(N)=O [1068.13] (PhAc-LD(X4)F[dP]-NH2) | 0 |
| CC(C)C[C@H](NC(=O)Cc1ccccc1)C(=O)N[C@@H](CC(=O)OCc1ccccc1)C(=O)N[C@@H](Cc1ccccc1)C(=O)N1CCC[C@@H]1C(N)=O [1068.07] (PhAc-LD(OBn)F[dP]-NH2) | 0 |
| CCCCCCCCCCCCCCCCCC(=O)OC1CCN(C(=O)[C@H](Cc2ccccc2)NC(=O)[C@H](CC(=O)O)NC(=O)[C@H](CC(C)C)NC(=O)Cc2ccccc2)CC1 [1068.05] | .63 |
| CCCCCCCCCCCCCCOC(=O)C[C@H](NC(=O)[C@H](CC(C)C)NC(=O)Cc1ccccc1)C(=O)N[C@@H](Cc1ccccc1)C(=O)N1CCC[C@@H]1C(N)=O [1068.11] (PhAc-LD(X1)F[dP]-NH2) | 0 |
| CCCCCCCCCCOC(=O)C[C@H](NC(=O)[C@H](CC(C)C)NC(=O)Cc1ccccc1)C(=O)N[C@@H](Cc1ccccc1)C(=O)N1CCC[C@@H]1C(N)=O [1068.09] (PhAc-LD(ODecyl)F[dP]-NH2) | 0 |
| CCOC(=O)C[C@H](NC(=O)[C@H](CC(C)C)NC(=O)Cc1ccccc1)C(=O)N[C@@H](Cc1ccccc1)C(=O)N1CCC[C@@H]1C(N)=O [1190.01] (PhAc-LD(OEt)F[dP]-NH2) | 0 |
| CCCCCCCCCCNC(=O)[C@@H]1CCCN1C(=O)[C@H](Cc1ccccc1)NC(=O)[C@H](CC(=O)O)NC(=O)[C@H](CC(C)C)NC(=O)Cc1ccccc1 [1068.04] (PhAc-LDFP-NHDecyl) | 2.13 |
| CC(C)C[C@H](NC(=O)Cc1ccccc1)C(=O)N[C@@H](CC(=O)OCC(=O)O)C(=O)N[C@@H](Cc1ccccc1)C(=O)N1CCC[C@@H]1C(N)=O [1067.02] (PhAc-LD(X6)F[dP]-NH2) | .81 |
| CCCCCCCCCC(=O)OC1CCN(C(=O)[C@H](Cc2ccccc2)NC(=O)[C@H](CC(=O)O)NC(=O)[C@H](CC(C)C)NC(=O)Cc2ccccc2)CC1 [1068.06] | .63 |
| CC(C)C[C@H](NC(=O)Cc1ccccc1)C(=O)N[C@@H](CC(=O)OCC(=O)OCc1ccccc1)C(=O)N[C@@H](Cc1ccccc1)C(=O)N1CCC[C@@H]1C(N)=O [1067.01] (PhAc-LD(X7)F[dP]-NH2) | .97 |
| CCCCCCCCCCCCOC(=O)C[C@H](NC(=O)[C@H](CC(C)C)NC(=O)Cc1ccccc1)C(=O)N[C@@H](Cc1ccccc1)C(=O)N1CCC[C@@H]1C(N)=O [1068.10] (PhAc-LD(X5)F[dP]-NH2) | 0 |
| CCCCCCCCCCCCCCCCCCOC(=O)C[C@H](NC(=O)[C@H](CC(C)C)NC(=O)Cc1ccccc1)C(=O)N[C@@H](Cc1ccccc1)C(=O)N1CCC[C@@H]1C(N)=O [1068.12] (PhAc-LD(X8)F[dP]-NH2) | 0 |
